This passage reports IC50 and EC50 results from US8673897B2, “Benzodiazepinone compounds and methods of treatment using same” (The Regents of the University of Michigan, priority 2009, dated 2014).

Broadly, the IC50 is the concentration at which inhibition is half-maximal. As usually defined, the EC50 is the concentration that produces a half-maximal response.

Where two headings read alike, the source gives them in different places.

One assay deals with T1, ATPase (Bos taurus, UniProt P13621).
T1 construct: from tissue; host or cells: bovine sub-mitochondrial particles (SMPs)
Put plainly: ATPase inhibition assay. Format: biochemical. The protocol: (§1) Representative compounds were tested for cytotoxicity in Ramos cells and inhibitory activity against ATPase. The Ramos cell death assay and ATPase inhibition assay were conducted as described in K. M. Johnson et al. Chemistry & Biology 2005, 12, 485-496.

For a further assay, the system named is Ramos cells. In words: Ramos cell death assay (cytotoxicity). Format: cell-based. The settings on record: Homo sapiens. The protocol:
as §1

As to `CCn1c(=O)[nH]c2ccc(C3=NC(Cc4ccc5ccccc5c4)C(=O)N(C)c4ccc(Cl)cc43)cc21` (stereo not drawn) [Compound I-1, 7-Chloro-5-(3-ethyl-2-oxo-2,3-dihydro-1H-benzo[d]imidazol-5-yl)-1-methyl-3-(naphthalen-2-ylmethyl)-1H-benzo[e][1,4]diazepin-2(3H)-one], on ATPase (read-out: ATPase IC50), the IC50 was below 7 µM. In the assay on Ramos cells, this molecule yielded an EC50 above 7 µM.

On to `Cn1c(=O)[nH]c2ccc(C3=NC(Cc4ccccc4Cl)C(=O)Nc4ccc(Cl)cc43)cc21` (stereo not drawn) [Compound I-2, 7-Chloro-3-(2-chlorobenzyl)-5-(3-methyl-2-oxo-2,3-dihydro-1H-benzo[d]imidazol-5-yl)-1H-benzo[e][1,4]diazepin-2(3H)-one], for which, at ATPase, the 50% inhibitory concentration (IC50) was below 7 µM. In the assay on Ramos cells, this molecule showed a concentration for a half-maximal effect (EC50) below 7 µM.

With `O=C(O)Cn1c(=O)[nH]c2ccc(C3=NC(Cc4ccccc4Cl)C(=O)Nc4ccc(Cl)cc43)cc21` (stereo not drawn) [Compound I-3, 2-(6-(7-Chloro-3-(2-chlorobenzyl)-2-oxo-2,3-dihydro-1H-benzo[e][1,4]diazepin-5-yl)-2-oxo-2,3-dihydro-1H-benzo[d]imidazol-1-yl)acetic acid], the 50% inhibitory concentration (IC50) on ATPase (read-out: ATPase IC50) is above 7 µM. Moreover, the 50% effective concentration (EC50) in the assay on Ramos cells was above 7 µM.

In the case of `CNC(=O)Cn1c(=O)[nH]c2ccc(C3=NC(Cc4ccccc4Cl)C(=O)Nc4ccc(Cl)cc43)cc21` (stereo not drawn) [Compound I-4, 2-(6-(7-Chloro-3-(2-chlorobenzyl)-2-oxo-2,3-dihydro-1H-benzo[e][1,4]diazepin-5-yl)-2-oxo-2,3-dihydro-1H-benzo[d]imidazol-1-yl)-N-methylacetamide], the IC50 at ATPase (read-out: ATPase IC50) is above 7 µM. The molecule further came in with an EC50 in the assay on Ramos cells above 7 µM.

Regarding `O=C1Nc2ccc(Cl)cc2C(c2ccc3[nH]c(=O)n(CCCO)c3c2)=NC1Cc1ccccc1Cl` (stereo not drawn) [Compound I-5, 7-Chloro-3-(2-chlorobenzyl)-5-(3-(3-hydroxypropyl)-2-oxo-2,3-dihydro-1H-benzo[d]imidazol-5-yl)-1H-benzo[e][1,4]diazepin-2(3H)-one], the IC50 on ATPase (read-out: ATPase IC50) was below 7 µM. For the same molecule, in the assay on Ramos cells, the EC50 was below 7 µM.

`O=C1Nc2ccc(Cl)cc2C(c2ccc3[nH]c(=O)n(CCO)c3c2)=NC1Cc1ccccc1Cl` (stereo not drawn) [Compound I-6, 7-Chloro-3-(2-chlorobenzyl)-5-(3-(2-hydroxyethyl)-2-oxo-2,3-dihydro-1H-benzo[d]imidazol-5-yl)-1H-benzo[e][1,4]diazepin-2(3H)-one]: at ATPase (read-out: ATPase IC50), the IC50 was above 7 µM. Moreover, in the assay with Ramos cells, the EC50 is below 7 µM.

Take `CN1C(=O)C(Cc2ccccc2Cl)N=C(c2ccc3[nH]c(=O)n(CCCO)c3c2)c2cc(Cl)ccc21` (stereo not drawn) [Compound I-7, 7-Chloro-3-(2-chlorobenzyl)-5-(3-(3-hydroxypropyl)-2-oxo-2,3-dihydro-1H-benzo[d]imidazol-5-yl)-1-methyl-1H-benzo[e][1,4]diazepin-2(3H)-one]: at ATPase (read-out: ATPase IC50), the IC50 was below 7 µM. In the assay on Ramos cells, this molecule showed an EC50 above 7 µM.

Turning to `Cn1c(=O)[nH]c2ccc(C3=NC(Cc4ccccc4Cl)C(=O)N(CCO)c4ccc(Cl)cc43)cc21` (stereo not drawn) [Compound I-8, 7-Chloro-3-(2-chlorobenzyl)-1-(2-hydroxyethyl)-5-(3-methyl-2-oxo-2,3-dihydro-1H-benzo[d]imidazol-5-yl)-1H-benzo[e][1,4]diazepin-2(3H)-one], on ATPase (read-out: ATPase IC50), the IC50 is below 7 µM. In the assay with Ramos cells, the EC50 was above 7 µM.

For `COc1cc(Cl)cc2c1NC(=O)C(Cc1ccccc1Cl)N=C2c1ccc2[nH]c(=O)n(C)c2c1` (stereo not drawn) [Compound I-9, 7-Chloro-3-(2-chlorobenzyl)-9-methoxy-5-(3-methyl-2-oxo-2,3-dihydro-1H-benzo[d]imidazol-5-yl)-1H-benzo[e][1,4]diazepin-2(3H)-one], at ATPase (read-out: ATPase IC50), the IC50 was below 7 µM. Also, the EC50 with Ramos cells is below 7 µM.

Consider `Cn1c(=O)[nH]c2ccc(C3=NC(Cc4ccccc4Cl)C(=O)Nc4c(O)cc(Cl)cc43)cc21` (stereo not drawn) [Compound I-10, 7-Chloro-3-(2-chlorobenzyl)-9-hydroxy-5-(3-methyl-2-oxo-2,3-dihydro-1H-benzo[d]imidazol-5-yl)-1H-benzo[e][1,4]diazepin-2(3H)-one], for which the 50% inhibitory concentration (IC50) on ATPase (read-out: ATPase IC50) was below 7 µM. This molecule also yielded a concentration for a half-maximal effect (EC50) in the assay with Ramos cells above 7 µM.

Regarding `CN1C(=O)C(Cc2ccccc2Cl)N=C(c2ccc3[nH]c(=O)n(C)c3c2)c2cc(Cl)ccc21` (stereo not drawn) [Compound I-11, 7-Chloro-3-(2-chlorobenzyl)-1-methyl-5-(3-methyl-2-oxo-2,3-dihydro-1H-benzo[d]imidazol-5-yl)-1H-benzo[e][1,4]diazepin-2(3H)-one], the IC50 at ATPase (read-out: ATPase IC50) was below 7 µM. The molecule further registered an EC50 with Ramos cells above 7 µM.

For the molecule `Cn1c(=O)[nH]c2ccc(C3=NC(Cc4ccccc4Cl)C(=O)Nc4c(F)cc(Cl)cc43)cc21` (stereo not drawn) [Compound I-12, 7-Chloro-3-(2-chlorobenzyl)-9-fluoro-5-(3-methyl-2-oxo-2,3-dihydro-1H-benzo[d]imidazol-5-yl)-1H-benzo[e][1,4]diazepin-2(3H)-one], the IC50 at ATPase (read-out: ATPase IC50) is below 7 µM. This molecule gave an EC50 in the assay with Ramos cells above 7 µM.

Turning to `Cn1c(=O)[nH]c2ccc(C3=NC(Cc4ccc(Cl)cc4)C(=O)Nc4ccc(Cl)cc43)cc21` (stereo not drawn) [Compound I-13, 7-Chloro-3-(4-chlorobenzyl)-5-(3-methyl-2-oxo-2,3-dihydro-1H-benzo[d]imidazol-5-yl)-1H-benzo[e][1,4]diazepin-2(3H)-one], the 50% inhibitory concentration (IC50) against ATPase is below 7 µM. Besides, the EC50 in the assay on Ramos cells was below 7 µM.

With `CCn1c(=O)[nH]c2cc(C3=NC(Cc4ccc5ccccc5c4)C(=O)Nc4ccc(Cl)cc43)ccc21` (stereo not drawn) [Compound I-14], the IC50 at ATPase (read-out: ATPase IC50) is below 7 µM. In the assay on Ramos cells, this molecule registered an EC50 below 7 µM.

In turn, `O=C1Nc2ccc(F)cc2C(c2ccc3[nH]c(=O)[nH]c3c2)=NC1Cc1ccccc1Cl` (stereo not drawn) [II-1, 3-(2-Chlorobenzyl)-7-fluoro-5-(2-oxo-2,3-dihydro-1H-benzo[d]imidazol-5-yl)-1H-benzo[e][1,4]diazepin-2(3H)-one] returned an IC50 at ATPase above 7 µM. The concentration for a half-maximal effect (EC50) with Ramos cells is below 7 µM.

Consider `CCc1ccc(CC2N=C(c3ccc(O)c(CC(N)=O)c3)c3cc(Cl)ccc3NC2=O)cc1CC` (stereo not drawn) [III-1, 2-(5-(7-Chloro-3-(3,4-diethylbenzyl)-2-oxo-2,3-dihydro-1H-benzo[e][1,4]diazepin-5-yl)-2-hydroxyphenyl)acetamide], for which the IC50 at ATPase (read-out: ATPase IC50) was above 7 µM. Besides, the EC50 with Ramos cells is below 7 µM.

Consider `Cc1cc(C2=NC(Cc3cc(F)ccc3Cl)C(=O)Nc3ccc(Cl)cc32)ccc1O` (stereo not drawn) [III-2, 7-Chloro-3-(2-chloro-5-fluorobenzyl)-5-(4-hydroxy-3-methylphenyl)-1H-benzo[e][1,4]diazepin-2(3H)-one], for which the IC50 against ATPase is below 7 µM. In addition, the EC50 with Ramos cells was below 7 µM.

As for `Cc1cc(C2=NC(Cc3ccc(Cl)cc3)C(=O)Nc3ccc(Cl)cc32)ccc1O` (stereo not drawn) [III-3, 7-Chloro-3-(4-chlorobenzyl)-5-(4-hydroxy-3-methylphenyl)-1H-benzo[e][1,4]diazepin-2(3H)-one], the IC50 at ATPase is below 7 µM. The same molecule had an EC50 in the assay on Ramos cells below 7 µM.

For `Cc1cc(C2=NC(Cc3ccc(F)cc3Cl)C(=O)Nc3ccc(Cl)cc32)ccc1O` (stereo not drawn) [III-4, 7-Chloro-3-(2-chloro-4-fluorobenzyl)-5-(4-hydroxy-3-methylphenyl)-1H-benzo[e][1,4]diazepin-2(3H)-one], on ATPase, the IC50 was below 7 µM. This molecule showed an EC50 in the assay on Ramos cells below 7 µM.

Consider `Cc1cc(C2=NC(Cc3ccccc3C(F)(F)F)C(=O)Nc3ccc(Cl)cc32)ccc1O` (stereo not drawn) [III-5, 7-Chloro-5-(4-hydroxy-3-methylphenyl)-3-(2-(trifluoromethyl)benzyl)-1H-benzo[e][1,4]diazepin-2(3H)-one], for which, on ATPase, the IC50 was below 7 µM. In the assay with Ramos cells, the EC50 was below 7 µM.

`Cc1cc(C2=NC(Cc3ccc(C(F)(F)F)cc3)C(=O)Nc3ccc(Cl)cc32)ccc1O` (stereo not drawn) [III-6, 7-Chloro-5-(4-hydroxy-3-methylphenyl)-3-(4-(trifluoromethyl)benzyl)-1H-benzo[e][1,4]diazepin-2(3H)-one] displayed an IC50 at ATPase above 7 µM. Also, the EC50 in the assay with Ramos cells was above 7 µM.

In turn, `Cn1c(=O)[nH]c2ccc(C3=N[C@H](Cc4ccccc4Cl)C(=O)Nc4ccc(Cl)cc43)cc21` [IV-1, (R)-7-Chloro-3-(2-chlorobenzyl)-5-(3-methyl-2-oxo-2,3-dihydro-1H-benzo[d]imidazol-5-yl)-1H-benzo[e][1,4]diazepin-2(3H)-one] yielded an IC50 at ATPase below 7 µM. This molecule also showed an EC50 with Ramos cells below 7 µM.

Take `Cn1c(=O)[nH]c2ccc(C3=N[C@@H](Cc4ccccc4Cl)C(=O)Nc4ccc(Cl)cc43)cc21` [IV-2, (S)-7-chloro-3-(2-chlorobenzyl)-5-(3-methyl-2-oxo-2,3-dihydro-1H-benzo[d]imidazol-5-yl)-1H-benzo[e][1,4]diazepin-2(3H)-one]: on ATPase, the IC50 was below 7 µM. Also, the concentration giving a half-maximal response (EC50) in the assay on Ramos cells was below 7 µM.

Regarding `O=C1Nc2ccc(Cl)cc2C(c2ccc3[nH]c(=O)n(CCCO)c3c2)=N[C@@H]1Cc1ccccc1Cl` [IV-3, (R)-7-chloro-3-(2-chlorobenzyl)-5-(3-(3-hydroxypropyl)-2-oxo-2,3-dihydro-1H-benzo[d]imidazol-5-yl)-1H-benzo[e][1,4]diazepin-2(3H)-one], the IC50 on ATPase (read-out: ATPase IC50) was below 7 µM. In addition, in the assay on Ramos cells, the EC50 was below 7 µM.

In the case of `O=C1Nc2ccc(Cl)cc2C(c2ccc3[nH]c(=O)n(CCCO)c3c2)=N[C@H]1Cc1ccccc1Cl` [IV-4, (S)-7-Chloro-3-(2-chlorobenzyl)-5-(3-(3-hydroxypropyl)-2-oxo-2,3-dihydro-1H-benzo[d]imidazol-5-yl)-1H-benzo[e][1,4]diazepin-2(3H)-one], the concentration for half-maximal inhibition (IC50) at ATPase (read-out: ATPase IC50) is below 7 µM. Moreover, the half-maximal effective concentration (EC50) in the assay with Ramos cells was below 7 µM.

For the molecule `Cc1cc(C2=N[C@@H](Cc3ccccc3Cl)C(=O)Nc3ccc(Cl)cc32)ccc1O` [IV-5, (S)-7-Chloro-3-(2-chlorobenzyl)-5-(4-hydroxy-3-methylphenyl)-1H-benzo[e][1,4]diazepin-2(3H)-one], the IC50 on ATPase is below 7 µM. Besides, the EC50 in the assay with Ramos cells was below 7 µM.

For `Cc1cc(C2=N[C@H](Cc3ccccc3Cl)C(=O)Nc3ccc(Cl)cc32)ccc1O` [IV-6, (R)-7-Chloro-3-(2-chlorobenzyl)-5-(4-hydroxy-3-methylphenyl)-1H-benzo[e][1,4]diazepin-2(3H)-one], at ATPase, the IC50 is below 7 µM. The same molecule displayed a concentration giving a half-maximal response (EC50) with Ramos cells below 7 µM.
